Reference: article PMC4385830, “Group I Paks as therapeutic targets in NF2-deficient meningioma” (Oncotarget, 2015)

Legend:
Experiment in all cases: Kinase selectivity, Z'-LYTE
Format in all cases: biochemical
ABL1 = target: T1, ABL1 (Homo sapiens, UniProt P00519)
T1 construct: purchased Invitrogen (Life Technologies) SelectScreen Z'-LYTE
Outline: (§1)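 Each recombinant kinase phosphorylates a peptide substrate under conditions optimized for that enzyme. A protease then cleaves only non-phosphorylated peptide, and the fluorescence change reports kinase activity.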

CDK7/cyclin H/MNAT1 = target: T2, CDK7/cyclin H/MNAT1 (Homo sapiens, UniProt P50613)
T2 construct: purchased Invitrogen (Life Technologies) SelectScreen Z'-LYTE
Outline: as §1

CSF1R (FMS) = target: T3, CSF1R (FMS) (Homo sapiens, UniProt P07333)
T3 construct: purchased Invitrogen (Life Technologies) SelectScreen Z'-LYTE
Outline: as §1

CSNK1G2 (CK1 gamma 2) = target: T4, CSNK1G2 (CK1 gamma 2) (Homo sapiens, UniProt P78368)
T4 construct: purchased Invitrogen (Life Technologies) SelectScreen Z'-LYTE
Outline: as §1

DYRK1A = target: T5, DYRK1A (Homo sapiens, UniProt Q13627)
T5 construct: purchased Invitrogen (Life Technologies) SelectScreen Z'-LYTE
Outline: as §1

FGFR2 = target: T6, FGFR2 (Homo sapiens, UniProt P21802)
T6 construct: purchased Invitrogen (Life Technologies) SelectScreen Z'-LYTE
Outline: as §1

FGFR3 = target: T7, FGFR3 (Homo sapiens, UniProt P22607)
T7 construct: purchased Invitrogen (Life Technologies) SelectScreen Z'-LYTE
Outline: as §1

FLT3 = target: T8, FLT3 (Homo sapiens, UniProt P36888)
T8 construct: purchased Invitrogen (Life Technologies) SelectScreen Z'-LYTE
T8 sequence (P36888 27-993): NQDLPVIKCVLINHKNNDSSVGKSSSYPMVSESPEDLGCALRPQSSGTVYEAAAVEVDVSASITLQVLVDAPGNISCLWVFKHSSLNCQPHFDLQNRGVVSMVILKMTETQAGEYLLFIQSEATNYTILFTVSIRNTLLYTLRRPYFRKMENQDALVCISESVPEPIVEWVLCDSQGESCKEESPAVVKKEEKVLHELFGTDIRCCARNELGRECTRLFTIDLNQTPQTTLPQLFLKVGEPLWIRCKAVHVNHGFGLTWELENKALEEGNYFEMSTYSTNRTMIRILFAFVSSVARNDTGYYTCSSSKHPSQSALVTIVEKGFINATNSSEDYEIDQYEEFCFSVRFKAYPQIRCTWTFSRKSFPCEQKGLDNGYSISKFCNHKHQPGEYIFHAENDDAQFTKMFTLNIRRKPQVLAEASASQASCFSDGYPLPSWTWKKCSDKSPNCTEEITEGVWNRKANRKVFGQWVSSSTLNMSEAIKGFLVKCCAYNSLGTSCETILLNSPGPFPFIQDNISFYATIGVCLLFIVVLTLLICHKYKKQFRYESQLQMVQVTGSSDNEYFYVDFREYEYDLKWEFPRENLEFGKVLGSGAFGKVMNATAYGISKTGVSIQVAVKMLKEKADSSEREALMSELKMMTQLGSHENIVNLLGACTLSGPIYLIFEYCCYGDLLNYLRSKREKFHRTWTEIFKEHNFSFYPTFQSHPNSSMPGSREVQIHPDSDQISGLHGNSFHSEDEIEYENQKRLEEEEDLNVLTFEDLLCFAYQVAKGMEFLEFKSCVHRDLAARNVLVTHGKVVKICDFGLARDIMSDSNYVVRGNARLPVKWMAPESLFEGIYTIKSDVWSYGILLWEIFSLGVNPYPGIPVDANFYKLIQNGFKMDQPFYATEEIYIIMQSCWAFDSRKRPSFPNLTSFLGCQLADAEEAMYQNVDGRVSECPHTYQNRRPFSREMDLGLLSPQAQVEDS
Outline: as §1

KDR (VEGFR2) = target: T9, KDR (VEGFR2) (Homo sapiens, UniProt P35968)
T9 construct: purchased Invitrogen (Life Technologies) SelectScreen Z'-LYTE
Outline: as §1

KIT = target: T10, KIT (Homo sapiens, UniProt P10721)
T10 construct: purchased Invitrogen (Life Technologies) SelectScreen Z'-LYTE
Outline: as §1

MAP2K1 (MEK1) = target: T11, MAP2K1 (MEK1) (Homo sapiens, UniProt Q02750)
T11 construct: purchased Invitrogen (Life Technologies) SelectScreen Z'-LYTE
Outline: as §1

MST1R (RON) = target: T12, MST1R (RON) (Homo sapiens, UniProt Q04912)
T12 construct: purchased Invitrogen (Life Technologies) SelectScreen Z'-LYTE
Outline: as §1

PAK6 = target: T13, PAK6 (Homo sapiens, UniProt Q9NQU5)
T13 construct: purchased Invitrogen (Life Technologies) SelectScreen Z'-LYTE
Outline: as §1

PDK1 Direct = target: T14, PDK1 Direct (Homo sapiens, UniProt O15530)
T14 construct: purchased Invitrogen (Life Technologies) SelectScreen Z'-LYTE
T14 sequence (O15530 1-556): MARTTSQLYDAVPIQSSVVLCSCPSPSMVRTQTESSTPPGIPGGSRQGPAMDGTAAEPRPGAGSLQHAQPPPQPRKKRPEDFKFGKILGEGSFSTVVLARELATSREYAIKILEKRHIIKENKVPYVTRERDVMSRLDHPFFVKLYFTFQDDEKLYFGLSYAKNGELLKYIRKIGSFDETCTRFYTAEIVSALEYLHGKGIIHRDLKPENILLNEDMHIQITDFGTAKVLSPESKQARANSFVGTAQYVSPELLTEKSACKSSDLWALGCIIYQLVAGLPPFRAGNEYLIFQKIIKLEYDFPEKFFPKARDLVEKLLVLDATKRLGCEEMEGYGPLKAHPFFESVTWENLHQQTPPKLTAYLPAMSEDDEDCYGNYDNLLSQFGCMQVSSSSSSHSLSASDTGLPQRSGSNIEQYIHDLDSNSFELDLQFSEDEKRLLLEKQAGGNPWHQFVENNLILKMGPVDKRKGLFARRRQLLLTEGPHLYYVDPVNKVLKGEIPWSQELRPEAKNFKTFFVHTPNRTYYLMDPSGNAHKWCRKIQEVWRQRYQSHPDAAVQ
Outline: as §1

RP88KA8 (RSK2) = target: T15, RP88KA8 (RSK2) (Homo sapiens, UniProt P51812)
T15 construct: purchased Invitrogen (Life Technologies) SelectScreen Z'-LYTE
Outline: as §1

STK22D (TSSK1) = target: T16, STK22D (TSSK1) (Homo sapiens, UniProt Q9BXA7)
T16 construct: purchased Invitrogen (Life Technologies) SelectScreen Z'-LYTE
T16 sequence (Q9BXA7 1-367): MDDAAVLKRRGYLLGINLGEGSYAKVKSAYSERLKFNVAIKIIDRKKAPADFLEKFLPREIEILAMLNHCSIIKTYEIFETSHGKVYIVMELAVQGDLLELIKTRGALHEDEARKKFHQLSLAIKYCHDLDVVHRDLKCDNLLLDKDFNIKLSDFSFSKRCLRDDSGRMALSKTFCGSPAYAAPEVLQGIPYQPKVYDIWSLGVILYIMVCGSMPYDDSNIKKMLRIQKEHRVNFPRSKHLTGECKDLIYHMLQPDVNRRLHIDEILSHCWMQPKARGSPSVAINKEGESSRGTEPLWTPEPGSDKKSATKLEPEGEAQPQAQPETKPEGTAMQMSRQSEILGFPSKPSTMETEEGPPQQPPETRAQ
Outline: as §1

T9 sequence (P35968 20-1356): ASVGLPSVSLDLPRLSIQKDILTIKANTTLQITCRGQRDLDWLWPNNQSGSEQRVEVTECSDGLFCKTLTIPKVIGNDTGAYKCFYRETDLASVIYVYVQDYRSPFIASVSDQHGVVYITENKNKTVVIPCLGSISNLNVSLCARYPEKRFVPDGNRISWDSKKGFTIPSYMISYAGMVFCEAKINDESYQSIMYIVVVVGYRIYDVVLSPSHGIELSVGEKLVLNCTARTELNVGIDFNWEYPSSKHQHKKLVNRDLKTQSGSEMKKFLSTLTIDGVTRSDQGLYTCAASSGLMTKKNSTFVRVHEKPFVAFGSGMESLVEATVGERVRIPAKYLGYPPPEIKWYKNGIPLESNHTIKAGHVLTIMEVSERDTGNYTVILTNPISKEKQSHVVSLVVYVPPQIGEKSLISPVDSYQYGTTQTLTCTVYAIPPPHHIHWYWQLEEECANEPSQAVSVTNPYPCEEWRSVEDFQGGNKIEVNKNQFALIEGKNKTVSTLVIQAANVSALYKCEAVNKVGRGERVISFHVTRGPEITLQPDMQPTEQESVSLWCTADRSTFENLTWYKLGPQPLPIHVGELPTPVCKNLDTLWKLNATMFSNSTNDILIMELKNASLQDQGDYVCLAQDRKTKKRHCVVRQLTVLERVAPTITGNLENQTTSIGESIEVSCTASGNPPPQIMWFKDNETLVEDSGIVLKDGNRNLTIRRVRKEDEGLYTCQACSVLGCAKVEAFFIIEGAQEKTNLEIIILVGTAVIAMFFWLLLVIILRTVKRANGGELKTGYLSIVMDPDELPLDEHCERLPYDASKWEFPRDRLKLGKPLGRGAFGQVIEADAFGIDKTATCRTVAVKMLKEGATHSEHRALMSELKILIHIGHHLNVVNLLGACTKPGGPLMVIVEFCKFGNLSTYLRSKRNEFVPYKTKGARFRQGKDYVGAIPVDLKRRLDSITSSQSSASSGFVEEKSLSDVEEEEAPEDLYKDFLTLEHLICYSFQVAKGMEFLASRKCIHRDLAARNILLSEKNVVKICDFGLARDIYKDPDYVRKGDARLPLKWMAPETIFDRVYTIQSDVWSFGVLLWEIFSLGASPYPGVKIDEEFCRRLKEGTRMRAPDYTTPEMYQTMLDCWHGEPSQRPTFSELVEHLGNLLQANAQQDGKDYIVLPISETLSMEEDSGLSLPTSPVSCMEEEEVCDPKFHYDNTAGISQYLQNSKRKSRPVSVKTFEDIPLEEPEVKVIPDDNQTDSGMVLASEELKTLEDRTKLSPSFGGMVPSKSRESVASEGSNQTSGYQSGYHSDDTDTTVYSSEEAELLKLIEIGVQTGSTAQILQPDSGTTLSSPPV
T12 sequence (Q04912 25-1400): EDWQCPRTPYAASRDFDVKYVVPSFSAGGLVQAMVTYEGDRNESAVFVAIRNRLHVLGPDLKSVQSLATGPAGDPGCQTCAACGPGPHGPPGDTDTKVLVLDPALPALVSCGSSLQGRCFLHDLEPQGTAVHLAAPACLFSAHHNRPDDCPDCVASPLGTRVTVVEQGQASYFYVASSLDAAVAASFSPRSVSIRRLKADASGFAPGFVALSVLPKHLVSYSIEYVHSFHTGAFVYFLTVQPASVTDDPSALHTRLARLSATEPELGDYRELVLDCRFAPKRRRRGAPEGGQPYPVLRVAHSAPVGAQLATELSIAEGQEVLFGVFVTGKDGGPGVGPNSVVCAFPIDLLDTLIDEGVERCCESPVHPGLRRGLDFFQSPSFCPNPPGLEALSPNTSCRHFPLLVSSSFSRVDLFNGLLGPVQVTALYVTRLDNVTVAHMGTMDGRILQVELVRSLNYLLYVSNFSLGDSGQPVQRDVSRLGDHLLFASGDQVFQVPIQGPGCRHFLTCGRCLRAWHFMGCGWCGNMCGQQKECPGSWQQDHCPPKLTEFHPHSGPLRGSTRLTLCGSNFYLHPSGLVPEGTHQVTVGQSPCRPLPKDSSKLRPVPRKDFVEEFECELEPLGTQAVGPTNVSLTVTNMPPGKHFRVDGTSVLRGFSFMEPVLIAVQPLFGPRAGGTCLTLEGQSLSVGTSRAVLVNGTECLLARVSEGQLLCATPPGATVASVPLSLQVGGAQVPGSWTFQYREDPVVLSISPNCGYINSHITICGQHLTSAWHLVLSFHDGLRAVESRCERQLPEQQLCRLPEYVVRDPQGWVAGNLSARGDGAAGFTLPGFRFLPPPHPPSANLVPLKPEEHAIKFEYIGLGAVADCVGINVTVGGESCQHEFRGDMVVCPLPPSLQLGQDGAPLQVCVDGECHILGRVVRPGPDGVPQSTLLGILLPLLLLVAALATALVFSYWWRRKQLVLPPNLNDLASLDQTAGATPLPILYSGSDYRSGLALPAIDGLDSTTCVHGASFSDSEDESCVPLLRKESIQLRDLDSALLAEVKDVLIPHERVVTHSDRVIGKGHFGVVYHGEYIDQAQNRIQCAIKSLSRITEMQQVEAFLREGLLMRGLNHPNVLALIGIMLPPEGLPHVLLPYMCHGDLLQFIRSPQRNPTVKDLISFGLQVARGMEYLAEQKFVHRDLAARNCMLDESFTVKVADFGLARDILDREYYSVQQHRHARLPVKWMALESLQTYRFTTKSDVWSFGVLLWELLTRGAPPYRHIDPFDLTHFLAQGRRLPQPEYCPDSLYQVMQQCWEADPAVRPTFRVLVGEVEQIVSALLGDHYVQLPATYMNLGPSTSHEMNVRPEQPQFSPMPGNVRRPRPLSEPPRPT
T6 sequence (P21802 22-821): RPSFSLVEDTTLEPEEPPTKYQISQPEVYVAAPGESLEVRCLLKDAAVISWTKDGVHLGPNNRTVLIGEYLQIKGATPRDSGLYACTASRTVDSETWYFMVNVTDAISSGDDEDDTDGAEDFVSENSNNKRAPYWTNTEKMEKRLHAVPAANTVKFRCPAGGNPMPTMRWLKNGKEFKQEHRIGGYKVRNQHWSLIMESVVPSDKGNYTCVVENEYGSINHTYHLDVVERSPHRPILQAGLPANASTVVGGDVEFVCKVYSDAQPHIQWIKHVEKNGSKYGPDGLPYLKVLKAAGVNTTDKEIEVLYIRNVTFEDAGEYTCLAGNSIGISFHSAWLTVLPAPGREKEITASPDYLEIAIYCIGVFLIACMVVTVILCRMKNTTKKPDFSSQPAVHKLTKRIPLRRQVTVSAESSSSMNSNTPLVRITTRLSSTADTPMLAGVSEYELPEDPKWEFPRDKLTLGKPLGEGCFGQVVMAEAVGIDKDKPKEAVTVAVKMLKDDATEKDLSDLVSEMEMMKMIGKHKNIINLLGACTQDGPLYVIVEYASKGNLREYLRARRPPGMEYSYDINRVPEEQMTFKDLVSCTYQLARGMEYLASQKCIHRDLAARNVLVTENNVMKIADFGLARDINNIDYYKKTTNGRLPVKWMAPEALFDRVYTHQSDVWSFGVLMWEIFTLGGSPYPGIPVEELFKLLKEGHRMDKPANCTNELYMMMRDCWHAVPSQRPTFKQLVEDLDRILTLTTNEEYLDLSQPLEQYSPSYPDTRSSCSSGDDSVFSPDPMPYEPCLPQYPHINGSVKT
T10 sequence (P10721 26-976): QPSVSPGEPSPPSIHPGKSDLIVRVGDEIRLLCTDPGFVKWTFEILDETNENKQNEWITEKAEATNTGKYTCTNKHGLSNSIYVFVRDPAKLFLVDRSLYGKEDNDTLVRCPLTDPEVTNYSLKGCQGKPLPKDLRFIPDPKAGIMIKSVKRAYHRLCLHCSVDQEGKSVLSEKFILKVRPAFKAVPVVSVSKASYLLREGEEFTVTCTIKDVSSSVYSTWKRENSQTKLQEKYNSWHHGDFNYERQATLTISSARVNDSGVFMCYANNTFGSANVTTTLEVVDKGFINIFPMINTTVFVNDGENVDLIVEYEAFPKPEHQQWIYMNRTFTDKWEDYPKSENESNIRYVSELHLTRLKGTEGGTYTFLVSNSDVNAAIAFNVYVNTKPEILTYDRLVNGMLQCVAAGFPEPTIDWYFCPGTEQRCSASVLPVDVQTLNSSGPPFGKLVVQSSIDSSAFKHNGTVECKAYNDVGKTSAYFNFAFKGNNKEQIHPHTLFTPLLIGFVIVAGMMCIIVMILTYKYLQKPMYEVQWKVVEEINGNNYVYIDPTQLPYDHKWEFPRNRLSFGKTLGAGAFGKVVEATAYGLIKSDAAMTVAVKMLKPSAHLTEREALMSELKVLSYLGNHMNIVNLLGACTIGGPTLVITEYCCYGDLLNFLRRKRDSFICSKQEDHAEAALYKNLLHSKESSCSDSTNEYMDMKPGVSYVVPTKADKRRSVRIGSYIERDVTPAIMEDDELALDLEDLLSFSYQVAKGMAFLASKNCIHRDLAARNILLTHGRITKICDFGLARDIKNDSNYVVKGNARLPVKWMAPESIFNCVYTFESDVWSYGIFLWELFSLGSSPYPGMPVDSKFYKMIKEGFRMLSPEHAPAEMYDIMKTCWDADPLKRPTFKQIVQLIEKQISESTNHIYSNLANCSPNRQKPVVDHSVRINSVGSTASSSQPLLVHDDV
T11 sequence (Q02750 whole entry): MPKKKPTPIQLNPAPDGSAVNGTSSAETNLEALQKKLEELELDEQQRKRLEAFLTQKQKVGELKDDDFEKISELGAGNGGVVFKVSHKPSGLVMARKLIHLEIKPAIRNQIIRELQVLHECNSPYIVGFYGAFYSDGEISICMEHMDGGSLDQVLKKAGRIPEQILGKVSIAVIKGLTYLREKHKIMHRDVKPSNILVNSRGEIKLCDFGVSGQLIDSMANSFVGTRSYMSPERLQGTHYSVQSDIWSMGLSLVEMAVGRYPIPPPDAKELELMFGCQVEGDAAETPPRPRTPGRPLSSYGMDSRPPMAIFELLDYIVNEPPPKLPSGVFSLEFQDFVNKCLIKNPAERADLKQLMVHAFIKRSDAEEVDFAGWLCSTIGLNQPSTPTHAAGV

Compound | % inhibition of activity (ABL1) [%] | % inhibition of activity (CDK7/cyclin H/MNAT1) [%] | % inhibition of activity (CSF1R (FMS)) [%] | % inhibition of activity (CSNK1G2 (CK1 gamma 2)) [%] | % inhibition of activity (DYRK1A) [%] | % inhibition of activity (FGFR2) [%] | % inhibition of activity (FGFR3) [%] | % inhibition of activity (FLT3) [%] | % inhibition of activity (KDR (VEGFR2)) [%] | % inhibition of activity (KIT) [%] | % inhibition of activity (MAP2K1 (MEK1)) [%] | % inhibition of activity (MST1R (RON)) [%] | % inhibition of activity (PAK6) [%] | % inhibition of activity (PDK1 Direct) [%] | % inhibition of activity (RP88KA8 (RSK2)) [%] | % inhibition of activity (STK22D (TSSK1)) [%]
Cc1nc(Nc2[nH]nc3c2CN(C(=O)N[C@H](CN(C)C)c2ccccc2)C3(C)C)c2sccc2n1 [PF3758309, reference compound] | 62 | 96 | 20 | 9 | 6 | 72 | 31 | 78 | 20 | 7 | 39 | 8 | 98 | 67 | 100 | 90
CCn1c(=O)c(-c2ccc(-c3noc(C)n3)cc2Cl)cc2cnc(Nc3ccc(C4CCN(C)CC4)cc3)nc21 [Frax716] | 93 | 2 | 97 | 3 | 3 | 60 | 35 | 92 | 90 | 77 | 48 | 40 | 17 | 15 | 6 | 5
CCn1c(=O)c(-c2ccc(-c3cncc(C)n3)cc2Cl)cc2cnc(NCCC3CCN(C)CC3)nc21 [Frax1036] | 18 | −3 | 41 | 3 | 5 | 15 | 0 | 10 | 16 | 32 | 27 | 55 | 27 | 0 | 11 | 12
